Measurements from ChEMBL document CHEMBL1130987, “The asymmetric synthesis and in vitro characterization of succinyl mercaptoalcohol and mercaptoketone inhibitors of matrix metalloproteinases” (Bioorg Med Chem Lett, 1998).

Legend:
[1] = molecular target: Matrix metalloproteinase-9 (Homo sapiens, UniProt P14780); assay: Inhibition of matrix metalloprotease-9, gelatinase-B
[2] = molecular target: Stromelysin-1 (Homo sapiens, UniProt P08254); assay: Inhibition of matrix metalloprotease-3, stromelysin-1
[3] = molecular target: T1, Interstitial collagenase (Homo sapiens, UniProt P03956); assay: Inhibition of matrix metalloprotease-1, Collagenase-1
T1 sequence (P03956 whole entry): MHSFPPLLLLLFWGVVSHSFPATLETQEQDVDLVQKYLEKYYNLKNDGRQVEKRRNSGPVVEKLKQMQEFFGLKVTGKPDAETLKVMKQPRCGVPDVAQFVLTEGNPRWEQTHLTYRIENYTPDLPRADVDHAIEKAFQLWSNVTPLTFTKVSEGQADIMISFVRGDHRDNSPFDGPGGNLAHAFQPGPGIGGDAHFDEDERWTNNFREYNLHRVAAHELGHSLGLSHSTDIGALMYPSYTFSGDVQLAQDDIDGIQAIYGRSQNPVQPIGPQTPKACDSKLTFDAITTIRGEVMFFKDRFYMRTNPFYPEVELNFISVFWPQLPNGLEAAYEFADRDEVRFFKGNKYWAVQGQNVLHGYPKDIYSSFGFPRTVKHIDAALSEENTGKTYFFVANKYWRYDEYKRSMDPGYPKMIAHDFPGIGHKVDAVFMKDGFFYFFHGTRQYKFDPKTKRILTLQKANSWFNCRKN

Chain of Stromelysin-1 (P08254 whole entry): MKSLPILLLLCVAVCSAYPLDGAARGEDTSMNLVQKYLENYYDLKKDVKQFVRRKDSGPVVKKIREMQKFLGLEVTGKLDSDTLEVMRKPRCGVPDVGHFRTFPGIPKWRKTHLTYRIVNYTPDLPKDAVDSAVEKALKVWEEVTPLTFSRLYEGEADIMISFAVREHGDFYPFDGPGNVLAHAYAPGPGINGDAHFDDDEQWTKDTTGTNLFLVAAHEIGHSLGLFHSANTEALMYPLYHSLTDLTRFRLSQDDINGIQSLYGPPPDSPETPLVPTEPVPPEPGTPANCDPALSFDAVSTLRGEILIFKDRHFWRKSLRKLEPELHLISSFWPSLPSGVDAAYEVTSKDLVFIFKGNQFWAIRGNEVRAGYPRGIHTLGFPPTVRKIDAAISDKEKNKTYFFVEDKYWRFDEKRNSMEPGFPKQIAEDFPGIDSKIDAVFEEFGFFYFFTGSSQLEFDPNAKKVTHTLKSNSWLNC
Chain of Matrix metalloproteinase-9 (P14780 whole entry): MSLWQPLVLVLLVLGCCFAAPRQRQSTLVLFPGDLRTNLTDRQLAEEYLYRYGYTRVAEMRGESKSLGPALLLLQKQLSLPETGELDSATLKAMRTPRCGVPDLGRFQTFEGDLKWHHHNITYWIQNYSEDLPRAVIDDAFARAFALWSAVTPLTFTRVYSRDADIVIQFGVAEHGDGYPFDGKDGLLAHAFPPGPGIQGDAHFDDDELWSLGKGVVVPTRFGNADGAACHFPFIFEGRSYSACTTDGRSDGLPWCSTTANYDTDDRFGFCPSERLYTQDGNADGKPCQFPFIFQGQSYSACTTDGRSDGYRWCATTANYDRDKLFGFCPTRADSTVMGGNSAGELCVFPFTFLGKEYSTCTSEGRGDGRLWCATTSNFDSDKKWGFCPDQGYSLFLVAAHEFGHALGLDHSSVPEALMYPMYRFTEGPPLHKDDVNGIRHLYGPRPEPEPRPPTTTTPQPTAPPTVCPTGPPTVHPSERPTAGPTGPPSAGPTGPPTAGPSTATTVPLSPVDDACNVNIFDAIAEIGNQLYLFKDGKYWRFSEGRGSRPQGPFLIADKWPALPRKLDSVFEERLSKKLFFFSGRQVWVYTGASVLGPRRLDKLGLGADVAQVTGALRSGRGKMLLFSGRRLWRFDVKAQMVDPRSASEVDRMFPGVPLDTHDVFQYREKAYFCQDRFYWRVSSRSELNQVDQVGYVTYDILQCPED

Row | Compound | IC50 [1] [nM] | IC50 [2] [nM] | IC50 [3] [nM]
1 | CNC(=O)[C@@H](NC(=O)[C@H](CC(C)C)C[C@@H](O)CS)C(C)(C)C | 250 | 3700 | 46
2 | CCCCCCC[C@H](C[C@H](O)CS)C(=O)N[C@H](C(=O)NC)C(C)(C)C | 0.14 | 9 | 5
3 | CCCCCCC[C@H](CC(=O)CS)C(=O)N[C@H](C(=O)NC)C(C)(C)C | 0.14 | 8 | 10
4 | CCCCCCC[C@H](CC(=O)CS)C(=O)N[C@@H](CC(C)C)C(=O)NC(=O)C(CC(C)C)NCC (stereo not given in full) | 20 | 36 | > 10000
5 | CNC(=O)[C@@H](NC(=O)[C@H](CC(C)C)C[C@H](O)CS)C(C)(C)C | 8 | 470 | 11
6 | CCCCCCC[C@H](C[C@@H](O)CS)C(=O)N[C@H](C(=O)NC)C(C)(C)C | 12 | 430 | 140
7 | CNC(=O)[C@@H](NC(=O)[C@@H](CC(=O)CS)CC(C)C)C(C)(C)C | 8 | 480 | 11
8 | CCCCCCC[C@H](C[C@H](O)CS)C(=O)N[C@@H](CC(C)C)C(=O)NC(=O)C(CC(C)C)NCC (stereo not given in full) | 24 | 39 | > 4000
9 | CNC(=O)[C@@H](NC(=O)[C@@H](CC(=O)NO)CC(C)C)C(C)(C)C [RO-319790] | – | – | 5
